Source: ChEMBL document CHEMBL1909046, “DrugMatrix in vitro pharmacology data”
pIC50, pKi: −log10 of the molar value.

Assays:
[1] = target: T1, Cysteinyl leukotriene receptor 1 (Homo sapiens, UniProt Q9Y271); assay type: cell membranes, CHO-K1, Membrane; conditions: for IC50 / Ki: cho-k1; on all read-outs here: in other assays of this panel Not Active means under 50% inhibition at 10 µM
T1 sequence (Q9Y271 whole entry): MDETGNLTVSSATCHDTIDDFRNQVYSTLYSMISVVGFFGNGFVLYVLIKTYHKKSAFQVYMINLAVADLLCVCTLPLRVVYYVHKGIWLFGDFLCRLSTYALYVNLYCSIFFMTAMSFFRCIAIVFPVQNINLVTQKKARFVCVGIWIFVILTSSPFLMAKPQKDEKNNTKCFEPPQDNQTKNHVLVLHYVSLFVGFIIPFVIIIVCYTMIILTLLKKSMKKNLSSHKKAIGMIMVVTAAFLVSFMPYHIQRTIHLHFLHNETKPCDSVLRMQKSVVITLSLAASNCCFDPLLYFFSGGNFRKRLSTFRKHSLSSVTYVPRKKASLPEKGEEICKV

[2] = target: Platelet-activating factor receptor (Homo sapiens, UniProt P25105); assay type: tissue-based; further: in other assays of this panel Not Active means under 50% inhibition at 10 µM
Platelet-activating factor receptor, sequence (P25105 whole entry): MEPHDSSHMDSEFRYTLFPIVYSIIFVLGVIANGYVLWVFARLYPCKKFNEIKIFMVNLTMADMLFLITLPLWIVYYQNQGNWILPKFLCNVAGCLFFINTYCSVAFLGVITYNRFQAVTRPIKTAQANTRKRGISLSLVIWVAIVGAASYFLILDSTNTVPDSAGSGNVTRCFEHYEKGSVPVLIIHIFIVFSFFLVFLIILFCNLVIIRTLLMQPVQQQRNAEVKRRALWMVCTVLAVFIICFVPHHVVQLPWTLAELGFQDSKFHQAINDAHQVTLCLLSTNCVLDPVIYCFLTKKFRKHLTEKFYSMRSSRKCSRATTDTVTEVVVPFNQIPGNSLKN

[3] = target: T2, Vasoactive intestinal polypeptide receptor 1 (Homo sapiens, UniProt P32241); assay type: cell membranes, Membrane; conditions: ht-29; further: in other assays of this panel Not Active means under 50% inhibition at 10 µM
T2 sequence (P32241 whole entry): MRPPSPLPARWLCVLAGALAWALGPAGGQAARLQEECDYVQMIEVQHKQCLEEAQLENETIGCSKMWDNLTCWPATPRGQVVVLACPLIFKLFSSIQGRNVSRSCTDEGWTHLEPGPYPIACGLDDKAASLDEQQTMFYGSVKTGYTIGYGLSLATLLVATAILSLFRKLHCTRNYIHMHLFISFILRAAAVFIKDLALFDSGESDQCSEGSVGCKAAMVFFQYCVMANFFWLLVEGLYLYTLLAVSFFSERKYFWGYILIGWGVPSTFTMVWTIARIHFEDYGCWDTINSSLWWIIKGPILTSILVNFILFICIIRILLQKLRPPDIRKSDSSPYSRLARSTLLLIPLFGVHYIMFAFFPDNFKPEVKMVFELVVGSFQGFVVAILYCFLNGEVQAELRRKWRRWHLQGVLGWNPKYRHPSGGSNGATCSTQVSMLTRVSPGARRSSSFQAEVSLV

[4] = target: Mitogen-activated protein kinase 1 (Homo sapiens, UniProt P28482); experiment: DRUGMATRIX: Protein Serine/Threonine Kinase, ERK2 enzyme inhibition (substrate: Myelin Basic Protein); design: species or system Escherichia coli; conditions: Not Active = under 50% inhibition at 10 µM
Mitogen-activated protein kinase 1, sequence (P28482 whole entry): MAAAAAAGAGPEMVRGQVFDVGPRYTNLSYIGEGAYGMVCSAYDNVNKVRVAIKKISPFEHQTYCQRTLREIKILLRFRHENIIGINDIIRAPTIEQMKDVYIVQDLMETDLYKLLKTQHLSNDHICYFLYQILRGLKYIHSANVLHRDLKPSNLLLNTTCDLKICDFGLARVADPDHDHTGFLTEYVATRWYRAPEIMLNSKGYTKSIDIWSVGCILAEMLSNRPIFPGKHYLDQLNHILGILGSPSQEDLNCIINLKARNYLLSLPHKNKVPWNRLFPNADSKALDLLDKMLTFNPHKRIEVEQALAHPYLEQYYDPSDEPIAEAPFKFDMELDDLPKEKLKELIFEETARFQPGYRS

Progesterone receptor = target: T3, Progesterone receptor (Bos taurus, UniProt Q690N0); experiment: DRUGMATRIX: Progesterone radioligand binding (ligand: [3H] R-5020); assay type: tissue-based, Uterus; conditions: Not Active = under 50% inhibition at 10 µM
T3 sequence (Q690N0 whole entry): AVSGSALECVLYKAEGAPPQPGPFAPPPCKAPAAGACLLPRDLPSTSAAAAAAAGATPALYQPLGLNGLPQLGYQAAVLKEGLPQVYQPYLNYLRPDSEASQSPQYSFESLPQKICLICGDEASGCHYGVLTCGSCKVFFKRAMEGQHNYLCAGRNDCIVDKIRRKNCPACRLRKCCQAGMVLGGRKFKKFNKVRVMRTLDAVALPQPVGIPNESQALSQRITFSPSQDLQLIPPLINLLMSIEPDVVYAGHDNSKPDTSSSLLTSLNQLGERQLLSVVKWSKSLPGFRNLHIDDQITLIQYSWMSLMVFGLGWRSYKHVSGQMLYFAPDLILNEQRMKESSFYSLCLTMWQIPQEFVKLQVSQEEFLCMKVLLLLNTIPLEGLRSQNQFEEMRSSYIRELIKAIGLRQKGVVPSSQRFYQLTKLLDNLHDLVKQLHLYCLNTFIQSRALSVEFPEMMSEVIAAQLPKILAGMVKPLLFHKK

[5] = target: T4, 3-hydroxy-3-methylglutaryl-coenzyme A reductase (Homo sapiens, UniProt P04035); design: species or system Escherichia coli;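 further: enzyme inhibition assay of HMG-CoA reductase using radiolabeled [14C]HMG-CoA as substrate; in other assays of this panel Not Active means under 50% inhibition at 10 µM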
T4 sequence (P04035 whole entry): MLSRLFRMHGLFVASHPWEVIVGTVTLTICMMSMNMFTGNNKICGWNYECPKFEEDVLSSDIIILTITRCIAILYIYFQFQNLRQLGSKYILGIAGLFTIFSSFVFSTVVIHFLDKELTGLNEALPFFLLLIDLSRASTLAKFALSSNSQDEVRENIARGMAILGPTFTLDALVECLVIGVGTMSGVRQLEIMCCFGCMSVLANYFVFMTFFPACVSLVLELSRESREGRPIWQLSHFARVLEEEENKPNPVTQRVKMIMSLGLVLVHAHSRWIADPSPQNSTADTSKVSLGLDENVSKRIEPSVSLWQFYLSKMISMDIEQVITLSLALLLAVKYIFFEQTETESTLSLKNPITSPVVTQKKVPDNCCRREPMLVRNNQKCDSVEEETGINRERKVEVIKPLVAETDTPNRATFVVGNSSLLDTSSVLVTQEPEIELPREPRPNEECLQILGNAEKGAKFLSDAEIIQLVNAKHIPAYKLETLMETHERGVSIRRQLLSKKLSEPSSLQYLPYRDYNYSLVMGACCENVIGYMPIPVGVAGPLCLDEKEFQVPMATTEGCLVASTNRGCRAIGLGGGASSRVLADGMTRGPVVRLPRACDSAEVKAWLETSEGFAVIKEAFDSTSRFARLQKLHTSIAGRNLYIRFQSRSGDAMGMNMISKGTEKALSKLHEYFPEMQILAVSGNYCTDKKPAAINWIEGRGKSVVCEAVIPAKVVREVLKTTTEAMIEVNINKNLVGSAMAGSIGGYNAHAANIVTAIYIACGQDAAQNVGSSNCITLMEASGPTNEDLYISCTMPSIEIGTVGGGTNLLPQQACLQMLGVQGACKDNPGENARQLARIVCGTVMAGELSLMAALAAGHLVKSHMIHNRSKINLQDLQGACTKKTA

[6] = target: T5, Type-2 angiotensin II receptor (Homo sapiens, UniProt P50052); assay type: cell-based; conditions: cho-k1; further: in other assays of this panel Not Active means under 50% inhibition at 10 µM
T5 sequence (P50052 whole entry): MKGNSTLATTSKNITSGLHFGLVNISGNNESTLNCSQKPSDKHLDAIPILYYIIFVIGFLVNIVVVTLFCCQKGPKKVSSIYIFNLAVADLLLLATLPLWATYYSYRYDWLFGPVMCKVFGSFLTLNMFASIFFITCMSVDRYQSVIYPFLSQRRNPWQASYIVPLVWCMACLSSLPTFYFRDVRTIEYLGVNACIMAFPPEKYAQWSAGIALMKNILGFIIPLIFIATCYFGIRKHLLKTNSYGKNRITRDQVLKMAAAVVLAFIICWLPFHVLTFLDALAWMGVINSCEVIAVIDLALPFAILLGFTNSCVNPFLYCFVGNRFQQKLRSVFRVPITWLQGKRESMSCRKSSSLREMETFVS

Compound	IC50 [1]	IC50 [2]	IC50 [3]	IC50 [4]	IC50 (Progesterone receptor)	IC50 [5]	IC50 [6]	Ki [1]	Ki [2]	Ki [3]	pIC50 ([4]; read-out: IC50)	Ki (Progesterone receptor)	Ki [5]	Ki [6]	pIC50 ([1]; read-out: IC50)	pKi ([1]; read-out: Ki)	pIC50 (Progesterone receptor; read-out: IC50)	pKi (Progesterone receptor; read-out: Ki)	Ki [4]
C[N+](C)(C)CCOP(=O)([O-])OC[C@H](O)CO	Not Active	Not Active	Not Active	Not Active	Not Active	Not Active	Not Active												
COc1ccc(C[C@H](N)C(=O)N[C@H]2[C@@H](O)[C@H](n3cnc4c(N(C)C)ncnc43)O[C@@H]2CO)cc1 [PUROMYCIN]	Not Active	Not Active	Not Active	Not Active	Not Active	Not Active	Not Active												
ClC1=C(Cl)[C@]2(Cl)[C@@H]3[C@@H]4C[C@@H]([C@H]5O[C@@H]45)[C@@H]3[C@@]1(Cl)C2(Cl)Cl [DIELDRIN]	Not Active	Not Active	Not Active	Not Active	Not Active	Not Active	Not Active												
CARBOXYMETHYLCELLULOSE	Not Active	Not Active	Not Active		Not Active	Not Active	Not Active	Not Active	Not Active	Not Active	6.67	Not Active	Not Active	Not Active					
CC(CN1c2ccccc2Sc2ccccc21)N(C)C (stereo not drawn) [PROMETHAZINE]	Not Active	Not Active	Not Active	Not Active	Not Active	Not Active	Not Active												
NCC(CC(=O)O)c1ccc(Cl)cc1 (stereo not drawn) [BACLOFEN]	Not Active	Not Active	Not Active	Not Active	Not Active	Not Active	Not Active												
CN(CCOc1ccc(C[C@H](Nc2ccccc2C(=O)c2ccccc2)C(=O)O)cc1)c1ccccn1		Not Active	Not Active	Not Active		Not Active	Not Active								4.96	5.26	4.51	5.40	
COPPER(II) OXIDE	Not Active	Not Active	Not Active	Not Active	Not Active	Not Active	Not Active	Not Active	Not Active	Not Active		Not Active	Not Active	Not Active					Not Active
Cl.NC[C@H]1CC[C@H](C(=O)Oc2ccc(CCC(=O)O)cc2)CC1 [CETRAXATE HYDROCHLORIDE]	Not Active	Not Active	Not Active	Not Active	Not Active	Not Active	Not Active												
COc1ccccc1OCCNCC(O)COc1cccc2[nH]c3ccccc3c12 (stereo not drawn) [CARVEDILOL]	Not Active	Not Active	Not Active	Not Active	Not Active	Not Active	Not Active												
C[C@H](C(=O)O)c1ccc2oc(-c3ccc(F)cc3)nc2c1 [FLUNOXAPROFEN]	Not Active	Not Active	Not Active	Not Active	Not Active	Not Active	Not Active												
CCN1CCN(c2cc3c(cc2F)c(=O)c(C(=O)O)cn3C2CC2)CC1 [ENROFLOXACIN]	Not Active	Not Active	Not Active	Not Active	Not Active	Not Active	Not Active												
C[C@]12CC[C@@H](O)C[C@@H]1CC[C@@H]1[C@@H]2CC[C@]2(C)C(=O)CC[C@@H]12 [ANDROSTERONE]	Not Active	Not Active	Not Active	Not Active	Not Active	Not Active	Not Active												
O=C(NCCN1CCOCC1)c1ccc(Cl)cc1 [MOCLOBEMIDE]	Not Active	Not Active	Not Active	Not Active	Not Active	Not Active	Not Active												
NC(=O)CN1CCCC1=O	Not Active	Not Active	Not Active	Not Active	Not Active	Not Active	Not Active												
CCO [ALCOHOL]	Not Active	Not Active	Not Active	Not Active	Not Active	Not Active	Not Active												
COc1ccc(Cl)cc1C(=O)NCCc1ccc(S(=O)(=O)NC(=O)NC2CCCCC2)cc1 [GLYBURIDE]	Not Active	Not Active	Not Active	Not Active	Not Active	Not Active	Not Active												
OC[C@H]1O[C@@H]2O[C@H]3[C@H](O)[C@@H](O)[C@@H](O[C@H]4[C@H](O)[C@@H](O)[C@@H](O[C@H]5[C@H](O)[C@@H](O)[C@@H](O[C@H]6[C@H](O)[C@@H](O)[C@@H](O[C@H]7[C@H](O)[C@@H](O)[C@@H](O[C@H]8[C@H](O)[C@@H](O)[C@@H](O[C@H]1[C@H](O)[C@H]2O)O[C@@H]8CO)O[C@@H]7CO)O[C@@H]6CO)O[C@@H]5CO)O[C@@H]4CO)O[C@@H]3CO [BETADEX]	Not Active	Not Active	Not Active	Not Active	Not Active	Not Active	Not Active												
NC(N)=Nc1nc(CSCCC(N)=NS(N)(=O)=O)cs1 [FAMOTIDINE]	Not Active	Not Active	Not Active	Not Active	Not Active	Not Active	Not Active												
